According to patent US5808109A, “Compounds that inhibit complement and/or suppress immune activity” (T Cell Sciences, Inc., priority 1995, dated 1998):
Where two headings read alike, the source gives them in different places.

What was measured:
[1] = test system: human peripheral blood lymphocytes (PBL); experiment: Inhibition of proliferation of peripheral blood lymphocytes, 3H-thymidine incorporation; type: cell-based; details: Lymphocyte
Description: The proliferation of human peripheral blood lymphocytes (PBL) in response to phytohemagglutinin (PHA, Well-come) or anti-CD3 monoclonal antibody (OKT-3, Ortho) was assessed by the incorporation of ^3 H-thymidine. Compound 11a was diluted in culture media to the desired concentrations, human PBL were added to a final concentration of 10^6 cells/ml, and then either PHA (Wellcome) or anti-CD3 (OKT3, Ortho) antibody (final concentration, […]) was added to initiate proliferation. The final volume per sample was 100 μl. The cells were incubated for 72 hours after stimulation, pulsed with 1 μCi ^3 H-thymidine per sample for 4 hours, harvested, and counted in a scintillation counter. […] Because cell viability was unaffected by the presence of 11a (see supra), the inhibition apparently was not due to cytotoxic effects.

[2] = test system: interleukin-2 receptor (IL-2R) release; experiment: IL-2R release into supernatant of stimulated PBL cultures (enzyme immunoassay); type: cell-based, human; details: stimulated PBL cultures (FIG. 6)
Description: (§1) Release of cell surface interleukin-2 receptor (IL-2R) or CD8 antigen from lymphocytes is a correlate of T cell activation (Rubin et al. J. Immunol. 1985, 135, 3172-77; Rubin et al. Fed. proc. 1985 44, 946; Fujimoto, J. et al. J. Exp. Med. 1983, 159, 752-66; Tomkinson, B. et al. 2d Annual Conference on Clinical Immunol. Washington, D.C., Oct. 30, 1987). In some experiments, the level of IL-2R or CD8 protein released into the supernatant of the PBL cultures was assessed by removing aliquots therefrom just prior to pulsing with ^3 H-thymidine. Commercially available enzyme immunoassay kits (CELLFREE™ IL-2R, Cat. No. CK1020, T Cell Sciences, Inc., Cambridge, Mass., or CELL-FREE™ T8/CD8, Cat. No. CK1040, T Cell Sciences) were used to determine the levels of the two analytes.

[3] = test system: cell surface IL-2R expression; experiment: Inhibition of cell surface IL-2R expression, PHA-stimulated PBL, flow cytometry; type: cell-based; details: PHA 72 h, total cell count 5000
Description: Compounds were tested for their ability to inhibit T cell activation, as indicated by inhibition of cell-surface IL-2R expression. PBL cultures (1.5 ml; 24-well plates) were stimulated with PHA (1 μg/ml) for 72 hours in the absence or presence of varying amounts of compound 11a. Subsequently, the cells were stained using fluorescein isothiocyanate (FITC)-labeled anti-IL-2R antibody (Act-T-Set IL-2R, Cat. No. AA2009, T Cell Sciences, Inc., Cambridge, Mass.) and analyzed by flow cytometry (Ortho System 30) (Table X).

[4] = test system: CD8 protein release; experiment: CD8 protein release into supernatant of stimulated PBL cultures (enzyme immunoassay); type: cell-based, human; details: stimulated PBL cultures (FIG. 7)
Description: as §1

[5] = test system: human peripheral blood lymphocytes (PBL); experiment: Inhibition of proliferation of peripheral blood lymphocytes, 3H-thymidine incorporation; type: cell-based; details: without stimulant, concentration ranges used in the proliferation assay
[6] = test system: C5a production; experiment: Inhibition of C5a production in human serum (aggregated IgG, RIA); type: biochemical; details: concentration inhibiting C5a production 50% relative to control
Description: The ability to inhibit complement was tested by assaying for specific inhibition of C3a and C5a production. For all experiments, a single human serum pool, to be used as a source of complement, was aliquoted and stored frozen at -70° C. Human IgG was heat-aggregated, aliquoted, and stored frozen at -70° C. For each experiment, serum aliquots were equilibrated at 37° C. with varying concentrations of the compounds tested. The classical complement pathway was initiated by the addition of aggregated human IgG. Control samples containing no IgG were always included. After a fixed reaction time of 10 minutes (determined in an earlier time-course study to provide a convenient time interval during which the production of C5a or C3a is nearly complete, i.e., greater than 90%), the levels of the released complement peptides (C5a or C3a) were determined by radioimmunoassay using commercially available radioimmunoassay (RIA) kits (C5a RIA, UpJohn Cat. No. 3250-02; C3a RIA, UpJohn Cat. No. 3245-01; C5a RIA, Amersham Cat. No. RPA.520; C3a RIA, Amersham RPA.518).
Since a competitive immunoassay was used, complement peptide (C5a and C3a) concentrations varied inversely with the counts. The Counts Bound (CB) for a sample was defined as the total counts (in counts per minute, cpm) measured in the pellet minus the counts measured in a nonspecific binding (NSB) control. The NSB control was a sample containing only tracer peptide (^125 I-labelled) and second precipitating antiserum; it contained no C5a- or C3a-specific antiserum.
The y-axis in FIG. 2 represents the fraction inhibition. The fraction inhibition is equal to the Counts Bound (CB) for a "sample," less the CB in the "sample with no added compound," divided by the CB for the "no IgG control" less the CB in the "sample with no added compound." [formula]
FIG. 2 is representative of the data plots obtained from the assays described above.

IL-2R protein release [2]: inhibitor | CD8 protein release [4]: inhibitor | IC50 [6]: 5 mM
SMILES: COc1ccc(C(=O)O)c2c1CC1(CCCCC1)O2 [Compound 11a, 7-carboxy-4-methoxyspiro[benzofuran-2(3H)-cyclohexane]]
IC50 ([1]; PHA stimulated (FIG. 4), read-out: Half-maximal inhibition of PBL proliferation): ~500 µM | IC50 ([1]; Table IX, PHA stimulation, 72 h, read-out: IP50 PHA-stimulated PBL): 400 µM | IC50 ([1]; Table IX, anti-CD3 (OKT-3) stimulation, 72 h, read-out: IP50 OKT-3-stimulated PBL): 500 µM | Number of Cells Positive for IL-2R ([3]; 0.44 nM (so in the source)): 913 | Percentage Positive ([3]; 0.44 nM (so in the source)): 18.3 | Number of Cells Positive for IL-2R ([3]; 1.76 nM (so in the source)): 225 | Percentage Positive ([3]; 1.76 nM (so in the source)): 4.5 | PBL viability by trypan blue exclusion [5]: viable
